According to US12600696B2 (XENIOPRO GMBH, priority 2017, dated 2026):

Each compound was assayed on Notch signaling (hNotch1ΔE, human Notch1 receptor) in HeLa cells (assay: Notch reporter assay (luciferase luminescence readout in transfected HeLa cells)). Details: 10 μM, 20 hours, relative to DMSO baseline level of 1.0.
Assay type: cell-based
Protocol: An according Notch-reporter assay, i.e. a luciferase-based luminescence readout, was used here to quantify the ability of the claimed small molecules to augment Notch signaling in a cellular system. For this purpose, HeLa cells, obtainable from the American Type Culture Collection (ATCC) under the accession number ATCC-CCL-2, were transiently transfected for 24 hours using FuGENE® HD (Promega, #E2311) as transfection reagent with expression vectors of a membrane-tethered form of the constitutively active intracellular domain of the human Notch1 receptor (hNotch1ΔE) to activate the signaling cascade (BPS Bioscience, human analogue to Notch Pathway Reporter Kit #60509 component C), a Firefly luciferase being expressed under the control of a Notch-responsive promoter to monitor Notch signaling (BPS Bioscience, Notch Pathway Reporter Kit #60509, CSL luciferase reporter vector from component A not premixed with Renilla luciferase vector), and a Renilla luciferase being constitutively expressed in a Notch signaling independent manner to include a measure for the cell number per sample (Promega, pRL-SV40, #E2231). HeLa cells were cultivated according to the protocol of the provider in DMEM medium (Fisherscientific, #11584456) containing 10% fetal bovine serum (Fisherscientific, #15517589). The transfection was carried out in a 100 mm-culture dish (StarLab, #CC7682-3394) with cells being properly attached to the plate at a cell confluency of 80-90% in a total volume of 7 mL culture medium. Per dish to be transfected, a transfection mix was prepared by adding to 238 μL Opti-MEM (Fisherscientific, #10149832) 40 μL of the hNotch1ΔE expression vector (100 ng/μL), 80 μL of the CSL luciferase reporter vector (40 ng/μL), 4 μL of the pRL-SV40-Renilla luciferase vector (10 ng/μL), and in the last step 18.1 μL of FuGENE® HD. After addition of FuGENE® HD the transfection mix was let stand for 15 min at room temperature and hereafter equally distributed into the culture dish. Subsequently, i.e. after 24 hours of transfection, the transfected cells (10.000 cells per well) were incubated with the test-compounds at a final concentration of 10 μM (diluted from 10 mM stock-solutions in DMSO to a final DMSO concentration of 0.1% v/v) or with the empty carrier DMSO at 0.1% v/v as control for 20 hours in 96-well plates suitable for luminescence readouts (CORNING, #3610). Hereafter, the cells were lysed with 30 μL per well of Passive Lysis Buffer (Promega, #E194A, component of Dual-Luciferase® Reporter Assay System, #E1910) and the Firefly as well as Renilla luciferase values were measured with a luminescence reader with applying 15 μL per well each of the corresponding enzyme substrates needed to create the luminescence signals (Promega, Dual-Luciferase® Reporter Assay System, #E1910).
The suitability of the assays for monitoring Notch signaling was controlled by additionally including a generally accepted commercial Notch inhibitor, i.e. DAPT, as negative control, as well as the reported Notch enhancer resveratrol (RES) as positive control (Pinchot et al., Cancer 2011, 117, 1386-1398; Truong et al., Ann. Surg. Oncol. 2011, 18, 1506-1511; Yu et al., Mol. Cancer Ther. 2013, 12, 1276-1287). Both control compounds were likewise tested at 10 μM.
Per single experiment the measurement was performed in six replicates per compound. For every compound, this experiment was repeated in three or more independent replicates. The values of the Notch-reporter luciferase were normalized by division through the corresponding individual Notch-independent Renilla values in order to eliminate the impact of variation in the absolute cell-numbers in between the samples. For every individual plate, a second normalization was performed against the equally weighted arithmetic mean (here abbreviated as AVE) of the six associated Renilla-normalized DMSO-control values within a single experiment in order to obtain the relative values to a baseline level of 1.0. […]
`C[C@H](NC(=O)Cc1cc(F)cc(F)c1)C(=O)N[C@H](C(=O)OC(C)(C)C)c1ccccc1` [DAPT, reference compound] was tested, and the “AVEw, weighted arithmetic mean of double-normalized Notch-reporter luciferase luminescence values (Activity Range)” value was 0.1 ± 0.0.

Same assay, conditions: Homo sapiens, 20 hours, relative to DMSO baseline level of 1.0, read-out: AVEw, weighted arithmetic mean of double-normalized Notch-reporter luciferase luminescence values (Activity Range)
For `CCCc1ccc(Oc2ccc(C(=O)O)cc2)cc1` [Compound 003, 4-(4-propylphenoxy)benzoic acid], the fold induction at 10 µM was 1.7 to 2.
`CCCCc1ccc(Oc2ccc(C(=O)O)cc2)cc1` [Compound 004, 4-(4-butylphenoxy)benzoic acid] showed a fold induction at 10 µM of 1.4 to 1.7.
`CCCCCc1ccc(Oc2ccc(C(=O)O)cc2)cc1` [Compound 005, 4-(4-Pentylphenoxy)benzoic acid] was tested, and the fold induction at 10 µM was 1.7 to 2.
Work on `CC(C)c1ccc(Oc2ccc(C(=O)O)cc2)cc1` [Compound 007, 4-(4-isopropylphenoxy)benzoic acid] yielded a fold induction at 10 µM of 1.2 to 1.3.
In the case of `O=C(O)c1ccc(Oc2ccc(C3C[C@@H]4CC[C@H]3C4)cc2)cc1` (stereo partly drawn) [Compound 019, 4-(4-((1S,4R)-bicyclo[2.2.1]heptan-2-yl)phenoxy)benzoic acid], the fold induction at 10 µM is reported as 1.2 to 1.3.
Work on `CCCc1ccc(Oc2ccc(C(=O)OC)cc2)cc1` [Compound 025, methyl 4-(4-propylphenoxy)benzoate] yielded a fold induction at 10 µM of 1.2 to 1.3.
`CCCCc1ccc(Oc2ccc(C(=O)OC)cc2)cc1` [Compound 026, methyl 4-(4-butylphenoxy)benzoate] gave a fold induction at 10 µM of 1.4 to 1.7.
`CCCCCc1ccc(Oc2ccc(C(=O)OC)cc2)cc1` [Compound 027, methyl 4-(4-pentylphenoxy)benzoate] gave a fold induction at 10 µM of 1.7 to 2.
`CCCc1ccc(Oc2ccc(C(=O)OCC)cc2)cc1` [Compound 050, ethyl 4-(4-propylphenoxy)benzoate] gave a fold induction at 10 µM of 1.4 to 1.7.
`CCCCc1ccc(Oc2ccc(C(=O)OCC)cc2)cc1` [Compound 051, Ethyl 4-(4-butylphenoxy)benzoate] gave a fold induction at 10 µM of 1.7 to 2.
With `CCCCCc1ccc(Oc2ccc(C(=O)OCC)cc2)cc1` [Compound 052, ethyl 4-(4-pentylphenoxy)benzoate] the fold induction at 10 µM was 1.4 to 1.7.
Compound `CCCc1ccc(Oc2ccc(C(=O)O)cn2)cc1` [Compound 071, 6-(4-Propylphenoxy)nicotinic acid] has a fold induction at 10 µM of 1.4 to 1.7.
Work on `COC(=O)c1ccc(Oc2ccc(C)cc2)nc1` [Compound 091, methyl 6-(p-tolyloxy)nicotinate] yielded a fold induction at 10 µM of 1.2 to 1.3.
For `COC(=O)c1ccc(Oc2ccc(C34CC5CC(CC(C5)C3)C4)cc2)nc1` [Compound 114, Methyl 6-(4-(adamantan-1-yl)phenoxy)nicotinate], the fold induction at 10 µM was 1.7 to 2.
In the case of `CCOC(=O)c1ccc(Oc2ccc(CC)cc2)nc1` [Compound 117, Ethyl 6-(4-Ethylphenoxy)nicotinate], the fold induction at 10 µM is reported as 1.4 to 1.7.
For `CCCc1ccc(Oc2ccc(C(=O)OCC)cn2)cc1` [Compound 118, ethyl 6-(4-propylphenoxy)nicotinate], the fold induction at 10 µM was 1.1 to 1.2.
Work on `CCCCCc1ccc(Oc2ccc(C(=O)OCC)cn2)cc1` [Compound 120, ethyl 6-(4-pentylphenoxy)nicotinate] yielded a fold induction at 10 µM of 1.4 to 1.7.
`CCOC(=O)c1ccc(Oc2ccc(C(C)C)cc2)nc1` [Compound 122, ethyl 6-(4-isopropylphenoxy)nicotinate] showed a fold induction at 10 µM of 1.3 to 1.4.
Work on `CNC(=O)c1ccc(Oc2ccc(C)cc2)cc1` [Compound 189, N-methyl-4-(p-tolyloxy)benzamide] yielded a fold induction at 10 µM of 1.1 to 1.2.
`CNC(=O)c1ccc(Oc2ccc(C(C)C)cc2)cc1` [Compound 195, 4-(4-Isopropylphenoxy)-N-methylbenzamide] gave a fold induction at 10 µM of 1.2 to 1.3.
`CN(C)C(=O)c1ccc(Oc2ccc(C3CCCCC3)cc2)cc1` [Compound 234, 4-(4-cyclohexylphenoxy)-N,N-dimethylbenzamide] gave a fold induction at 10 µM of 1.1 to 1.2.
Compound `Cc1ccc(Oc2ccc(C(N)=O)cn2)cc1` [Compound 241, 6-(p-Tolyloxy)nicotinamide] has a fold induction at 10 µM of 1.2 to 1.3.
Work on `CCc1ccc(Oc2ccc(C(N)=O)cn2)cc1` [Compound 242, 6-(4-ethylphenoxy)nicotinamide] yielded a fold induction at 10 µM of 1.2 to 1.3.
`CC(C)c1ccc(Oc2ccc(C(N)=O)cn2)cc1` [Compound 247, 6-(4-isopropylphenoxy)nicotinamide] showed a fold induction at 10 µM of 1.2 to 1.3.
`CNC(=O)c1ccc(Oc2ccc(C)cc2)nc1` [Compound 291, N-methyl-6-(p-tolyloxy)nicotinamide] gave a fold induction at 10 µM of 1.4 to 1.7.
`CCc1ccc(Oc2ccc(C(=O)NC)cn2)cc1` [Compound 292, 6-(4-ethylphenoxy)-N-mtehylnicotinamide] gave a fold induction at 10 µM of 1.3 to 1.4.
For `CNC(=O)c1ccc(Oc2ccc(C(C)C)cc2)nc1` [Compound 297, 6-(4-Isopropylphenoxy)-N-methylnicotinamide], the fold induction at 10 µM was 1.4 to 1.7.
`CCCc1ccc(Oc2ccc(C(=O)O)cc2F)cc1` [Compound 343, 3-fluoro-4-(4-propylphenoxy)benzoic acid] gave a fold induction at 10 µM of 1.1 to 1.2.
`CCCCc1ccc(Oc2ccc(C(=O)O)cc2F)cc1` [Compound 344] was tested, and the fold induction at 10 µM was 1.3 to 1.4.
`O=C(O)c1ccc(Oc2ccc(C34CC5CC(CC(C5)C3)C4)cc2)c(F)c1` [Compound 363, 4-(4-((3r,5r,7r)-adamantan-1-yl)phenoxy)-3-fluorobenzoic acid] showed a fold induction at 10 µM of 1.2 to 1.3.
For `CCCc1ccc(Oc2ccc(C(=O)OCC)cc2F)cc1` [Compound 394, ethyl 3-fluoro-4-(4-propylphenoxy)benzoate], the fold induction at 10 µM was 1.4 to 1.7.
Work on `CCCCCc1ccc(Oc2ccc(C(=O)OCC)cc2F)cc1` [Compound 396, ethyl 3-fluoro-4-(4-pentylphenoxy)benzoate] yielded a fold induction at 10 µM of 1.2 to 1.3.
`CCC(C)(C)c1ccc(Oc2ncc(C(=O)OC)cc2F)cc1` [Compound 451, Methyl 5-fluoro-6-(4-(tert-pentyl)phenoxy)nicotinate] was tested, and the fold induction at 10 µM was 1.1 to 1.2.
For `O=C(O)c1ccc(Oc2ccc(C3(C(F)(F)F)CC3)cc2)cc1` [Compound 703, 4-(4-(1-(Trifluoromethyl)cyclopropyl)phenoxy)benzoic acid], the fold induction at 10 µM was 1.1 to 1.2.
`O=C(O)c1ccc(Oc2ccc(C3(C(F)(F)F)CC3)cc2)nc1` [Compound 730, 6-(4-(1-(Trifluoromethyl)cyclopropyl)phenoxy)nicotinic acid] showed a fold induction at 10 µM of 1.1 to 1.2.
